{"source": "patent US5281710A", "about": "“Dynemicin analogs: synthesis, methods of preparation and use” (The Scripps Research Institute, priority 1992, dated 1994)", "key": {"[1]": {"system": "HMEC human mammary epithelial cells", "assay": "Sulforhodamine B cytotoxicity, HMEC", "assay_type": "cell-based", "conditions": "Homo sapiens, normal cells", "experimental": "(§1) In addition to the screening already discussed, several of the before-described compounds and chimeras were screened against several or all of a panel of ten to twenty-five cancerous cell lines as target cells and seven \"normal\" cell preparations. This screening utilized a sulforhodamine B cytotoxidity assay as discussed below.\n(§2) IC50 values; i.e., the concentration of Compound required to kill one-half of the treated cells, were then calculated.\nHMEC Human mammary epithelial cells"}, "[2]": {"system": "CHO Chinese hamster ovary cells", "assay": "Sulforhodamine B cytotoxicity, CHO", "assay_type": "cell-based", "conditions": "Cricetulus griseus; CHO, normal cells", "experimental": "as §1, §2"}, "[3]": {"system": "NHEK normal human epidermal keratinocytes", "assay": "Sulforhodamine B cytotoxicity, NHEK", "assay_type": "cell-based", "conditions": "normal cells", "experimental": "as §1, §2\nNHEK Normal human epidermal keratinocytes"}, "SK-Mel-28 melanoma cells": {"system": "SK-Mel-28 melanoma cells", "assay": "Sulforhodamine B cytotoxicity, SK-Mel-28", "assay_type": "cell-based", "conditions": "Homo sapiens, SK-MEL-28, SK-Mel-28; read-out: IC50", "experimental": "as §1, §2"}, "[4]": {"system": "H-322 lung carcinoma cells", "assay": "Sulforhodamine B cytotoxicity, H-322", "assay_type": "cell-based", "conditions": "NCI-H322; H-322; read-out: IC50", "experimental": "as §1, §2"}, "[5]": {"system": "MCF-7 breast carcinoma cells", "assay": "Sulforhodamine B cytotoxicity, MCF-7", "assay_type": "cell-based", "conditions": "Homo sapiens, MCF7, MCF-7; read-out: IC50", "experimental": "as §1, §2"}, "[6]": {"system": "SIHA cervical carcinoma cells", "assay": "Sulforhodamine B cytotoxicity, SIHA", "assay_type": "cell-based", "conditions": "Homo sapiens", "experimental": "as §1, §2"}, "[7]": {"system": "Ovcar-3 ovarian carcinoma cells", "assay": "Sulforhodamine B cytotoxicity, Ovcar-3", "assay_type": "cell-based", "conditions": "Homo sapiens, OVCAR-3, Ovcar-3; read-out: IC50", "experimental": "as §1, §2"}, "[8]": {"system": "HT-29 colon carcinoma cells", "assay": "Sulforhodamine B cytotoxicity, HT-29", "assay_type": "cell-based", "conditions": "Homo sapiens, HT-29, colon carcinoma H-29 (Table 4) / HT-29 (Table 5); read-out: IC50", "experimental": "as §1, §2"}, "[9]": {"system": "MCF-7(ADR) breast carcinoma cells", "assay": "Sulforhodamine B cytotoxicity, MCF-7/ADR", "assay_type": "cell-based", "conditions": "Homo sapiens, NCI/ADR-RES, Adriamycin resistant", "experimental": "as §1, §2"}, "[10]": {"system": "HL-60 promyeocytic leukemia cells", "assay": "Sulforhodamine B cytotoxicity, HL-60", "assay_type": "cell-based", "conditions": "Homo sapiens, HL-60, HL-60; read-out: IC50", "experimental": "as §1, §2"}, "[11]": {"system": "PC-3 prostate carcinoma cells", "assay": "Sulforhodamine B cytotoxicity, PC-3", "assay_type": "cell-based", "conditions": "Homo sapiens", "experimental": "as §1, §2"}, "Water solubility": {"assay": "Water solubility", "assay_type": "physicochemical"}, "[12]": {"system": "MOLT-4 (Leukemia) cell line", "assay": "cells", "assay_type": "cell-based", "conditions": "Homo sapiens, MOLT-4, Molt-4 leukemia cell line; read-out: IC50", "experimental": "as §1, §2"}, "[13]": {"system": "NHDF normal human dermal fibroblasts", "assay": "cells", "assay_type": "cell-based", "conditions": "NHDF", "experimental": "as §1, §2\nNHDF Normal human dermal fibroblasts"}, "[14]": {"system": "Capan-1 pancreatic carcinoma cells", "assay": "Sulforhodamine B cytotoxicity, Capan-1", "assay_type": "cell-based", "conditions": "Homo sapiens, CAPAN-1, Capan-1; read-out: IC50", "experimental": "as §1, §2"}, "φX174 Form I DNA": {"system": "φX174 Form I DNA", "conditions": "literature; cited from earlier work"}, "[15]": {"conditions": "mice, comparison value; cited from earlier work"}, "[16]": {"system": "MB49 murine bladder carcinoma cells", "assay": "6-well cytotoxicity assay, MB49", "assay_type": "cell-based", "conditions": "MB-49", "experimental": "MIA PaCa-2 cells, MB-49, CV-1 or WI-38 cells were loaded into each well of a 6-well plate at a density of 100,000 cells/well in 3 ml culture medium. They were incubated for 4 hours (37° C., 7 percent CO2). Then 6 microliters of solution containing a compound to be assayed were added into 3 ml of medium (RPMI-1640, with 5 percent fetal bovine serum and 1 percent glutamine) in a 500X dilution so that in one well ethanol was added to make a 0.2 percent ethanol control. The plates were then incubated for 4 days (37° C., 7 percent CO2). The medium was then drained, crystal violet dye (Hucker formula) was added to cover the well bottoms and then they were rinsed with tap water until rinses were clear. The stained cells were solubilized for quantitation with Sarkosyl solution (N-Lauryl sarcosine, 1 percent in water) at 3 ml/well. The absorbance of the solution was then read at 590-650 nm."}, "cancer cell lines": {"system": "cancer cell lines", "assay": "cells", "assay_type": "cell-based", "conditions": "Average data obtained from 5~10 cell lines; read-out: IC50 (average)", "experimental": "as §1\nSULFORHODAMINE B CYTOTOXICITY ASSAY\na. Stock drug solutions were prepared by dissolving drug in the appropriate solvent (determined during chemical characterization studies) and sterile filtering the drug-solvent solution through a sterile 0.2μ filter unit. An aliquot was taken from each filtered drug solution and the O.D. was measured to determine the drug concentration.\nf. Incubate (37° C., 5-10 percent CO2 in humidified incubator) plates for a total of 72 hours. Check plates at 24 hour intervals microscopically for signs of cytotoxicity.\nas §2\nAll other cells or cell lines were obtained from the American Type Culture Collection (ATCC) (all except CHO cells are human or mouse cancer cell lines as described by the ATC).\nTables 1 and 2 herein below provide average IC50 data from five to all ten of the above cancer cells lines for fused ring enediyne compounds disclosed herein. Those tables provide a generic structure and a description of the R group of that generic structure for each compound. Compound numbers as noted hereinbefore are also provided. Table 3 contains data for two fused-ring enediyne compounds (Compounds 47 and 120) as well as data for six chimers. Table 4 contains cancer cell and noraml cell cytotoxicity data for one select fused ring enediyne, Compound 153 against a number of \"normal\" cell preparations and tumor cell lines. Table 5 contains cancer cell and normal cell cytotoxicity data for another fused ring enediyne, Compound 250 against a similar panel of cells."}}, "note": "Entries after “also recorded” stand apart in the source; their conditions may differ."}
{"smiles": "C[N+](C)(C)CC(=O)OCCOc1ccc2c(c1)[C@@]13O[C@]14CCC[C@H]3C#C/C=C\\C#C[C@@H]4N2C(=O)OCCS(=O)(=O)c1ccccc1", "note": "(relative stereo) [Compound 250]", "values": [{"measurement": "IC50", "setting": "[1]", "value": 3.1, "unit": "µM"}, {"measurement": "IC50", "setting": "[2]", "value": 0.098, "unit": "µM"}, {"measurement": "IC50", "setting": "[3]", "value": 1.6, "unit": "µM"}, {"measurement": "IC50", "setting": "SK-Mel-28 melanoma cells", "value": 3.1, "unit": "µM"}, {"measurement": "IC50", "setting": "[4]", "value": 13, "unit": "µM"}, {"measurement": "IC50", "setting": "[5]", "value": "> 0.098", "unit": "µM"}, {"measurement": "IC50", "setting": "[6]", "value": "> 0.098", "unit": "µM"}, {"measurement": "IC50", "setting": "[7]", "value": "> 0.098", "unit": "µM"}, {"measurement": "IC50", "setting": "[8]", "value": 0.19, "unit": "µM"}, {"measurement": "IC50", "setting": "[9]", "value": 0.19, "unit": "µM"}, {"measurement": "IC50", "setting": "[10]", "value": "> 0.098", "unit": "µM"}, {"measurement": "IC50", "setting": "[11]", "value": 1.6, "unit": "µM"}, {"measurement": "water solubility", "setting": "Water solubility", "value": "enhanced water solubility as compared to Compound 153; also recorded: more water soluble derivative of Compound 153"}, {"measurement": "IC50", "setting": "[12]", "value": "~100", "unit": "µM"}, {"measurement": "IC50", "setting": "[13]; Homo sapiens, normal cells, read-out: IC50", "value": 6.3, "unit": "µM"}, {"measurement": "IC50", "setting": "[14]", "value": "> 0.098", "unit": "µM"}]}
{"smiles": "CCN[C@H]1CO[C@@H](O[C@H]2[C@H](O[C@H]3C#C/C=C\\C#C[C@]4(O)CC(=O)C(NC(=O)OC)=C3/C4=C\\CSSSC)O[C@H](C)[C@@H](NO[C@H]3C[C@H](O)[C@H](SC(=O)c4c(C)c(I)c(O[C@@H]5O[C@@H](C)[C@H](O)[C@@H](OC)[C@H]5O)c(OC)c4OC)[C@@H](C)O3)[C@@H]2O)C[C@@H]1OC", "note": "[Calicheamicin]", "values": [{"measurement": "DNA cleavage sequence specificity", "setting": "φX174 Form I DNA", "value": "double DNA strand cuts at specific sequences"}, {"measurement": "LD50", "setting": "[15]", "value": 5, "unit": "µg/kg"}, {"measurement": "IC50", "setting": "[13]; control drugs, read-out: Range of Average IC50 Values, NHDF", "value": 0.0025, "unit": "µM"}]}
{"smiles": "O=C(Oc1ccccc1)N1c2ccccc2C23OC24CCCC3(O)C#C/C=C\\C#CC14", "note": "(stereo not drawn) [Compound 2]", "values": [{"measurement": "anti-tumor cell activity", "setting": "[16]", "value": "more active against the cancerous MB-49 cells than against non-transformed CV-1 African green monkey kidney cells (ATCC CCL 70) or WI-38 human lung cells"}, {"measurement": "IC50", "setting": "cancer cell lines", "value": 6.3, "unit": "µM"}]}
